A word on the mass density: it is mass per unit of volume. As usually defined, the viscosity is the resistance of a fluid to flow.

The structures appear in SMILES notation. ± gives the expanded uncertainty stated by the source.

For the series the following is noted: 298.15 K; 101.33 kPa; Liquid.
`ClC=C(Cl)Cl` [trichloroethene]: the mass density is recorded as 1455.65 ± 1.3 kg/m3 and the viscosity amounted to 0.536 ± 0.008 mPa·s.

`CC(Cl)(Cl)Cl` [1,1,1-trichloroethane]: the mass density was 1329.55 ± 1.1 kg/m3 and the viscosity stood at 0.789 ± 0.011 mPa·s.

Turning to `ClC(Cl)C(Cl)Cl` [1,1,2,2-tetrachloroethane], the mass density was determined as 1586.65 ± 1.6 kg/m3 and the viscosity was determined as 1.431 ± 0.019 mPa·s.

For the compound `ClCCCl` [1,2-dichloroethane], the mass density was found to be 1245.64 ± 0.92 kg/m3 and the viscosity was 0.776 ± 0.011 mPa·s.

As for `CCCCCCCO` [heptan-1-ol], the mass density was 818.48 ± 0.68 kg/m3 and the viscosity is reported as 5.818 ± 0.079 mPa·s.

As to `ClC(Cl)=C(Cl)Cl` [tetrachloroethene], the mass density turned out to be 1613.2 ± 1.6 kg/m3 and the viscosity came to 0.839 ± 0.012 mPa·s.
